Consider two compounds from paper PMC10888192, “New Derivatives of 1-(3-Methyl-1-Benzofuran-2-yl)Ethan-1-one: Synthesis and Preliminary Studies of Biological Activity” (International Journal of Molecular Sciences, 2024).

Common to all, as to type: cell-based, human
In one test the test system is K562 cells. Briefly: Trypan blue exclusion assay, K562. Particulars: 72 h; for Cell Number (×10^6): K562, trypan blue, IC50 concentration. The protocol:
The MTT assay assesses the viable cell number based on mitochondrial enzyme activity. […] In the next step of our studies, we analyzed the total cell number and viability after exposure to the selected compounds at IC50 concentration using trypan blue exclusion assay. K562 cells were incubated with tested compounds over 72 h. […] To assess the antiproliferative properties of newly synthesized derivatives, we analyzed the total cell number. […] The parallel experiment was conducted with HaCaT cells. […] The trypan blue test rapidly assesses cell viability indirectly from cell membrane integrity, but some publications have indicated weaknesses of this viability test. […] On the other hand, cell membrane integrity may be affected even while the cell might still be able to repair itself and become fully viable.
To evaluate the antiproliferative effects of the novel benzofurans derivatives the trypan blue exclusion assay was performed. Cells (HaCat, and K562) were seeded into 12-well plates (2 × 10^4 cells/well). After 24 h, cells were exposed to the tested compounds at concentrations of their respective IC50 and incubated for 72h. Then, cells were harvested and centrifugated (500× g, 5min). After centrifugation supernatant was removed and cell sediment was dissolved in 0.2 mL of PBS. Next, 10 µL of cells solution was mixed with 10 µL of trypan blue dye. Cells were counted by automatic cell counter (Countessa). Data obtained were expressed as the mean ± SD and the mean percentage of viable cells was calculated from three independent experiments performed in triplicate.

In test [1] the test system is reactive oxygen species (H2O2) in K562 cells. Briefly: ROS generation (DHR 123 and DCFH-DA fluorescence). To be noted: K562, IC50 concentration, 12 h incubation, DHR123 or DCF-DA, compared with untreated cells. The source says: The resulting data were expressed as mean ± SD from three independent experiments performed in triplicate.
In test [2] the test system is IL-6 secretion by K562 cells. Kind of test: IL-6 release, ELISA. To be noted: for Il-6 Concentration in K562 Cells in 72 h: ELISA, culture medium, IC50 concentration, mean ± SD; for Reduction of the level of IL-6: K562, IC50 concentration, 72 h. The source says: Among many soluble factors present in the plasma and tissue microenvironment in patients with chronic lymphatic leukemia recent studies confirmed a presence of few types of interleukin (IL) including 4, 6 and 10. […] IL-6 is a member of a big family of cytokines and is predominantly excreted by T cells and macrophages to stimulate immune response during infection. Studies have shown that elevated levels of serum IL-6 is positively correlated with worse clinical outcomes in patients with different types of cancer, including leukemia. IL-6 also plays a key role in the chemoresistance of malignancies. Based on these findings we checked the effect of our new benzofuran derivatives on IL-6 secretion by K562 cells. […] On the other hand, K562 cells like other erythroid and megakaryocytic cells release IL-6 in a constitutive way.
K562 cells were treated with IC50 concentrations of the tested compounds. After 72 h, medium was collected and the IL-6 level was measured using an enzyme-linked immunosorbent assay, in accordance with the manufacturer’s protocol. The resulting data were expressed as mean ± SD from three independent experiments performed in triplicate.

Test [3] concerns caspases 3 and 7 in K562 cells. Kind of test: Caspase-Glo 3/7 assay. To be noted: IC50 concentration; for Effect on activity of caspases 3 and 7: 4 h incubation. An excerpt:
ROS may play a different function in different stages of cancer. ROS might enhance cell growth and proliferation through the induction of various cell signaling pathways involving nuclear factor-kappa B (NF-κB) and STAT3, hypoxia-inducible factor 1α (HIF1α), kinases, growth factors, cytokines and many other proteins. On the other hand, the accumulation of ROS can induce cell damage and promote apoptosis. It has also been confirmed that elevated ROS concentration may cause mitochondrial membrane depolarization and facilitate increased cellular pro-apoptotic molecules releasing. […] As has been previously reported, lead compound 1,1′-[3-(bromomethyl)-5,6-dimethoxy-1-benzofuran-2,7-diyl] induces apoptosis in human leukemia cells. […] We used the Annexin V-FITC test, which allows us to detect the early structural changes in cellular membrane which occur during apoptosis. […] In the control sample almost 94% of cells were neither apoptotic nor necrotic. […] As has been previously written, the MTT test assesses the toxicity of tested compounds based on the activity of mitochondrial enzymes. […] Our results are in agreement with studies conducted by Liu et al. and Su et al. They report that the benzofuran derivatives ACDB and BL-038 induce apoptosis of human chandrosarcoma cells through ROS generation, mitochondria and endoplasmic reticulum dysfunction. BL-038 increases ROS production and dysregulates mitochondria membrane potential. This causes cytochrome C to be released from mitochondria and caspase activation. Similar effects have been observed for 2-amino-3-(2-chlorophenyl)-6-(4-dimethylaminophenyl) benzofuran-4-yl acetate (ACDB). It is well documented that disruption of the mitochondrial membrane as a result of, for example, the action of free radicals causes the release of cytochrome C. In the next step, cytochrome C binds to Apaf-1 (apoptotic protease activating factor 1) and it becomes the main component of apoptosome. The binding of cytochrome C with Apaf-1 is a critical step in apoptosome formation because it is responsible for the induction of intrinsic cell death pathway triggered by caspase activation. The observed increased concentration of hydrogen peroxide in cells exposed to both tested compounds might be a key factor for the molecular mechanism of apoptosis. Hydrogen peroxide can affect the redox state of cytochrome C. In addition to the effect of hydrogen peroxide on the iron atom in the cytochrome, it can also affect the activation of caspases. In order to estimate the effect of K562 exposure on the tested compounds as well as to confirm apoptotic properties of new benzofurans, we analyzed the effect of the compounds caspases 3 and 7 activities. […] We observed significant changes of activity after 48 h exposure. […] The caspase cascade responsible for executing cell death following cytochrome C release is well documented. Available research indicates, first of all, the key role of caspases 3 and 7 as mediators in the apoptosis through the intrinsic (mitochondrial) cell death pathway. […] They have shown that caspase 9 is responsible for mitochondrial morphological changes and ROS production by cleaving and activating Bid into tBid. Following caspase 9 activation, caspase 3 […] ROS generation and is essential for the efficient execution of apoptosis, whereas effector caspase 7 is needed for apoptotic cell detachment. […]
The induction of cell apoptosis was also analyzed by luminescent assay with the Caspases-Glo3/7 assay system (Promega). […]

Each structure is given as a SMILES string.

Turning to `COc1cc(OC)c2c(CBr)c(C(C)=O)oc2c1` [Compound 6, 1-[3-(Bromomethyl)-4,6-Dimethoxy-1-Benzofuran-2-yl]Ethanone], the “Reduction of total cell number” value in the test with K562 cells (K562, IC50 concentration, compared to control) was determined as 13%. Also, the “Cell Number (×10^6)” value in the test on K562 cells was 0.62 ± 0.12 ×10^6. Moreover, the “Increase of fluorescence intensity (ROS generation)” value in test [1] is “two-fold increase in fluorescence intensity”. Also, in test [2], the “Il-6 Concentration in K562 Cells in 72 h” value is given as 5.791 ± 2.048 and the “Reduction of the level of IL-6” value was determined as 50%. Further, in test [3], the “Effect on activity of caspases 3 and 7” value is “did not affect the activity of caspases 3 and 7”. In addition, the “Increase of activity of caspases 3 and 7” value in test [3] (12 h exposure) amounted to 26%.

In the case of `CCOc1cccc2oc(C(C)=O)c(CBr)c12` [Compound 8, 1-[3-(Bromomethyl)-4-Ethoxy-1-Benzofuran-2-yl]Ethanone], the “Cell Number (×10^6)” value in the test on K562 cells is 0.83 ± 0.12 ×10^6. Further, the “Increase of fluorescence intensity (ROS generation)” value in test [1] is recorded as “statistically significant increase of fluorescence intensity”. In addition, in test [2], the “Il-6 Concentration in K562 Cells in 72 h” value was determined as 6.958 ± 3.623 and the “Reduction of the level of IL-6” value came to 40%. Besides, the “Effect on activity of caspases 3 and 7” value in test [3] was “did not affect the activity of caspases 3 and 7”. Further, in test [3] (12 h exposure), the “Increase of activity of caspases 3 and 7” value stood at 27%. Moreover, the “Increase of activity of caspases 3 and 7” value in test [3] (48 h exposure) is recorded as 13%.
